The assay concerns H1975 cells. Description: Cell proliferation and growth inhibition assay (CCK-8) in H1975. The class given is cell-based. Particulars: Homo sapiens, NCI-H1975, 72 h, treated with test compounds for 72 hrs, CCK-8 viability, read-out: EGFR IC50 in H1975. The method, then:
MV-4-11 and H1975 cells were obtained from the American Type Culture Collection and KM12-luc cells were obtained from JCRB Cell Bank. All cell lines were maintained at 37° C. with 5% C02, in media supplemented with 10% fetal bovine serum and penicillin (100 units/mL) and streptomycin (100 μg/mL). MV-4-11 cells were maintained in Iscove's Modified Dubecco's Medium, H1975 cells were cultured with RPMI 1640 media, and KM12-luc cells were maintained in Dulbecco's Modification of Eagle's Medium. CCK-8 reagent was obtained from Yeasen.
Cell proliferation was assessed by CCK-8 assay (Yeasen) per the manufacturer's instructions. The MV-4-11 (AML), H1975, and KM12-luc cells were seeded at 30,000, 3,000 and 2,500 cells per well onto 96-well plates, and after a 24 h incubation, the cells were treated with test compounds for 72 hrs. Cell viability was assayed by incubating the cells with CCK-8 reagent for 1-4 hrs. Absorbance was measured at OD450 using the Beckman DTX880. The data was calculated using GraphPad Prism version 6.01. The IC50 values were fitted using a non-linear regression model with a sigmoidal dose response.
The term IC50 denotes the midpoint of a concentration-inhibition curve. With `CCC(=O)Nc1cc(Nc2ncc(C(F)(F)F)c(-c3c[nH]c4c(C)cccc34)n2)ccc1N(C)CCN(C)C` [Compound 542, N-(2-((2-(dimethylamino)ethyl)(methyl)amino)-5-((4-(7-methyl-1H-indol-3-yl)-5-(trifluoromethyl)pyrimidin-2-yl)amino)phenyl)propionamide], the concentration for half-maximal inhibition (IC50) was 0.0804 µM.
Next, `CCC(=O)Nc1cc(Nc2ncc(C(F)(F)F)c(-c3c[nH]c4c(OC)cccc34)n2)ccc1N(C)CCN(C)C` [Compound 543, N-(2-((2-(dimethylamino)ethyl)(methyl)amino)-5-((4-(7-methoxy-1H-indol-3-yl)-5-(trifluoromethyl)pyrimidin-2-yl)amino)phenyl)propionamide]: 0.0674 µM; `CN(C)CCN(C)c1ccc(Nc2nccc(-c3c[nH]c4c(F)cccc34)n2)cc1N` [Compound 545, N^1-(2-(dimethylamino)ethyl)-N^1-methyl-N^4-(4-(7-fluoro-1H-indol-3-yl)pyrimidin-2-yl)benzene-1,2,4-triamine]: 0.877 µM; `CC(=O)Nc1cc(Nc2nccc(-c3c[nH]c4c(F)cccc34)n2)ccc1N(C)CCN(C)C` [Compound 546, N-(2-((2-(dimethylamino)ethyl)(methyl)amino)-5-((4-(7-fluoro-1H-indol-3-yl)pyrimidin-2-yl)amino)phenyl)acetamide]: 1.02 µM.
Next, `CCC(=O)Nc1cc(Nc2nccc(-c3c[nH]c4c(F)cccc34)n2)ccc1N(C)CCN(C)C` [Compound 547, N-(2-((2-(dimethylamino)ethyl)(methyl)amino)-5-((4-(7-fluoro-1H-indol-3-yl)pyrimidin-2-yl)amino)phenyl)propionamide]: 1.18 µM; `Cc1cccc2c(-c3ccnc(Nc4ccc(N(C)CCN(C)C)c(N)c4)n3)c[nH]c12` [Compound 549, N^1-(2-(dimethylamino)ethyl)-N^1-methyl-N^4-(4-(7-methyl-1H-indol-3-yl)pyrimidin-2-yl)benzene-1,2,4-triamine]: 0.682 µM; `CCC(=O)Nc1cc(Nc2nccc(-c3c[nH]c4c(C)cccc34)n2)ccc1N(C)CCN(C)C` [Compound 550, N-(2-((2-(dimethylamino)ethyl)(methyl)amino)-5-((4-(7-methyl-1H-indol-3-yl)pyrimidin-2-yl)amino)phenyl)propionamide]: 1.51 µM.
As to `CC(=O)Nc1cc(Nc2nccc(-c3c[nH]c4c(C)cccc34)n2)ccc1N(C)CCN(C)C` [Compound 551, N-(2-((2-(dimethylamino)ethyl)(methyl)amino)-5-((4-(7-methyl-1H-indol-3-yl)pyrimidin-2-yl)amino)phenyl)acetamide], the IC50 is 1.54 µM.
For `COc1cccc2c(-c3ccnc(Nc4ccc(N(C)CCN(C)C)c(N)c4)n3)c[nH]c12` [Compound 553, N^1-(2-(dimethylamino)ethyl)-N^4-(4-(7-methoxy-1H-indol-3-yl)pyrimidin-2-yl)-N^1-methylbenzene-1,2,4-triamine], the IC50 is 1.14 µM.
Next, `COc1cccc2c(-c3ccnc(Nc4ccc(N(C)CCN(C)C)c(NC(C)=O)c4)n3)c[nH]c12` [Compound 554, N-(2-((2-(dimethylamino)ethyl)(methyl)amino)-5-((4-(7-methoxy-1H-indol-3-yl)pyrimidin-2-yl)amino)phenyl)acetamide]: 1.03 µM; `CCC(=O)Nc1cc(Nc2nccc(-c3c[nH]c4c(OC)cccc34)n2)ccc1N(C)CCN(C)C` [Compound 555, N-(2-((2-(dimethylamino)ethyl)(methyl)amino)-5-((4-(7-methoxy-1H-indol-3-yl)pyrimidin-2-yl)amino)phenyl)propionamide]: 2.25 µM.

(Values after patent US20250136576A1, “Heterocyclic Compounds and Uses Thereof” (ACEA Therapeutics, Inc., priority 2021, published 2025).)
